Test results as given in ChEMBL document CHEMBL2384972, “Tricyclic Pyrimidines As Inhibitors of DYRK1A/DYRK1B As Potential Treatment for Down's Syndrome or Alzheimer's Disease” (ACS Med Chem Lett, 2013).

Experiments:
[1] = biological target: Dual specificity tyrosine-phosphorylation-regulated kinase 1B (Homo sapiens, UniProt Q9Y463); experiment: Inhibition of recombinant DYRK1B (unknown origin) after 120 mins in presence of [33P]-ATP
[2] = biological target: Dual specificity tyrosine-phosphorylation-regulated kinase 1A (Homo sapiens, UniProt Q13627); experiment: Inhibition of recombinant DYRK1A (unknown origin) after 120 mins in presence of [33P]-ATP

Dual specificity tyrosine-phosphorylation-regulated kinase 1B, sequence (Q9Y463 whole entry): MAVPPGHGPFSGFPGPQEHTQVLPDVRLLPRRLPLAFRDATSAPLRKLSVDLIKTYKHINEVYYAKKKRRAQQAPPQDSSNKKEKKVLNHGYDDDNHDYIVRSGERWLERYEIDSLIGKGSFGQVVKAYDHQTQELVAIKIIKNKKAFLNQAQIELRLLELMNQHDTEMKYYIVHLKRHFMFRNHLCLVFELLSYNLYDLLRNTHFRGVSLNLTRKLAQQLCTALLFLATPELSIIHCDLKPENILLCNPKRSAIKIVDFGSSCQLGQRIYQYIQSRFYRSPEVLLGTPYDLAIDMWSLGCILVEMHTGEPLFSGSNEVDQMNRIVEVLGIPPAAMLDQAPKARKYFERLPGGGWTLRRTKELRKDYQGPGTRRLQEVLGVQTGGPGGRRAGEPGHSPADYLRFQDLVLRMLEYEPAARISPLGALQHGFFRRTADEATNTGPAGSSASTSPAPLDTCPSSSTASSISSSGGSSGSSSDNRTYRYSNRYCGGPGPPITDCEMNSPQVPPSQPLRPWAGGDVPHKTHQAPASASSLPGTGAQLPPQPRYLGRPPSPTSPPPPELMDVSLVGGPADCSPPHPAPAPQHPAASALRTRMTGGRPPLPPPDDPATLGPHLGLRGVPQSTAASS

SMILES	IC50 [1] [nM]	IC50 [2] [nM]
COC(=N)c1nc2ccc3ncnc(Nc4ccc(Br)cc4F)c3c2s1	0.24	0.16
COC(=N)c1nc2ccc3ncnc(Nc4ccc(F)cc4Br)c3c2s1	6.55	3.6
